The values below come from article PMC5318888, “SAMHD1 enhances nucleoside-analogue efficacy against HIV-1 in myeloid cells” (Scientific Reports, 2017).

pEC50: −log10 of the molar value.

Holding throughout (type): cell-based
A short description of series [1]: Cytotoxicity, live cells by flow cytometry, H9 cells. The conditions noted are these: human. The procedure:
(§1) H9, Jurkat and undifferentiated U937 and THP-1 (PMA^−) cells (6 × 10^5 cells/mL) were treated with increasing concentrations of nucleoside analogues (0–200 μM; except CFB, 0–1.6 μM) and incubated at 37 °C in 5% CO2 for 48 h. Medium was then replaced and cells were further incubated for 72 h. Non-dividing U937 and THP-1 (PMA^+) cells (6 × 10^5 cells/mL) were differentiated by addition of 100 nM phorbol-12-myristate-13-acetate (PMA^+) for 48 h and then treated with increasing concentrations of nucleoside analogues as described above. The percentage of live cells was determined by flow cytometry using Live/Dead fixable blue-fluorescent dyes (Invitrogen) and a Fortessa X20 analyser (BD Biosciences). Data were analysed using the FlowJo software suite.
(§2) The cytotoxic concentration of nucleoside analogue that inhibits cell viability by 50% (CC50) and the effective concentration of nucleoside analogue that inhibits infection of cells by 50% (EC50) were calculated for each independent experiment by non-linear regression using GraphPad Prism v6.00 for Windows (GraphPad Software, San Diego, CA). Non-ambiguous values were subjected to a replicate test to calculate confidence intervals of 95% (95% CI). CC50 and EC50 values were determined for at least two independent experiments for each nucleoside analogue and a selectivity index (SI) also calculated, (SI = CC50/EC50). EC50 values for each replicate were used to perform an unpaired two-tailed t-test to determine significant differences between U937 cells expressing SAMHD1 wt or HD206-7AA mutant and THP-1 cells expressing Vpx or untransduced cells. P values of <0.005 were considered statistically significant.
(In general: In flow cytometry, cells or beads pass a laser one at a time.)

The test system of the next series is THP-1 cells. Nature of the series: Cytotoxicity, live cells by flow cytometry, THP-1 cells (PMA−/PMA+). The conditions noted are these: human, 48 h. The procedure: as §1, §2
Test in series [2]: as above
The conditions noted are these: human, CC50. The procedure:
as §1, §2

A further series is described as follows: in vitro. The conditions noted are these: human. The procedure:
as §1, §2

Series [3] concerns HIV-1-GFP. Kind of series: Anti-HIV-1 activity in THP-1 cells with or without Vpx transduction. The procedure: (§3) Antiviral assays were further performed in monocytoid cells transduced with YFP-expressing VLPs containing WT SAMHD1, HD206-7AA or Vpx. Briefly, U937 cells (6 × 10^5 cells/mL) were transduced with WT SAMHD1-YFP or HD206-7AA-YFP VLPs by spinoculation at 800 × g for 90 min in the presence of 1 μg/mL polybrene. Similarly, THP-1 cells (6 × 10^5 cells/mL) were transduced with Vpx-YFP VLPs by spinoculation at 800 × g for 90 min in the presence of 1 μg/mL polybrene. Cells were incubated at 37 °C in 5% CO2 and after 72 h, PMA^+ cells (6 × 10^5 cells/mL) were treated with 100 nM PMA and PMA^− cells (7.5 × 10^4 cells/mL) were left untreated. Cells were then incubated at 37 °C in 5% CO2 for 48 h. Nucleoside analogues were added at increasing concentrations (0–200 μM; except CFB, 0–1.6 μM) and cells were further incubated for 48 h. PMA^− cells were then infected with HIV-1-GFP by spinoculation at 800 × g for 90 min in the presence of 1 μg/mL polybrene, PMA^+ cells were infected with HIV-1-GFP in the presence of 1 μg/mL polybrene only. Cells were incubated for 72 h at 37 °C in 5% CO2 and then analysed by two-colour flow cytometry using a Fortessa X20 analyser (BD Biosciences). Data were analysed using the FlowJo software suite.
as §2

The nature of series [4]: Cytotoxicity, live cells by flow cytometry, Jurkat cells. The conditions noted are these: human. The procedure:
as §1, §2

Series [5] can be described thus: Cytotoxicity, live cells by flow cytometry, U937 cells (PMA−/PMA+). The conditions noted are these: human, CC50. The procedure:
as §1, §2

In the next series the test system is U937 cells. The description is as above. The note with it: human, 48 h. The procedure: as §1, §2
For series [6], the system named is HIV-1-GFP. Kind of series: microbe, parasite or virus in culture. The procedure: H9 and Jurkat cells (6 × 10^5 cells/mL) were treated with increasing concentrations of nucleoside analogues (0–200 μM; except CFB, 0–1.6 μM) and incubated for 4 h at 37 °C in 5% CO2. Cells were then infected with HIV-1-GFP by spinoculation at 800 × g for 90 min in the presence of 1 μg/mL polybrene, and further incubated at 37 °C in 5% CO2 for 72 h. Undifferentiated U937 and THP-1 (PMA^−) cells (6 × 10^5 cells/mL) were treated with increasing concentrations of nucleoside analogues (0–200 μM; except CFB, 0–1.6 μM) and incubated at 37 °C in 5% CO2 for 48 h. Cells were then infected with HIV-1-GFP by spinoculation at 800 × g for 90 min in the presence of 1 μg/mL polybrene, and further incubated at 37 °C in 5% CO2 for 72 h. Non-dividing U937 and THP-1 (PMA^+) cells (6 × 10^5 cells/mL) were differentiated by addition of 100 nM PMA (PMA^+) for 48 h and treated with increasing concentrations of nucleoside analogues as described above. Cells were then infected with HIV-1-GFP in the presence of 1 μg/mL polybrene and further incubated at 37 °C in 5% CO2 for 72 h. The percentage of GFP^+cells was determined by one-colour flow cytometry using a Fortessa X20 analyser (BD Biosciences) and the data analysed using the FlowJo software suite.
Non-ambiguous values were subjected to a replicate test to calculate confidence intervals of 95% (95% CI). CC50 and EC50 values were determined for at least two independent experiments for each nucleoside analogue and a selectivity index (SI) also calculated, (SI = CC50/EC50). EC50 values for each replicate were used to perform an unpaired two-tailed t-test to determine significant differences between U937 cells expressing SAMHD1 wt or HD206-7AA mutant and THP-1 cells expressing Vpx or untransduced cells. P values of <0.005 were considered statistically significant.

The subject of series [7] is HIV-1-GFP. Nature of the series: Anti-HIV-1 activity in U937 cells transduced with wt SAMHD1 or HD206-7AA mutant. The procedure: as §3, §2

Usually CC50 stands for the concentration that lowers cell viability or growth by half. Low values mean harm at low concentration, high ones better tolerance by the cells. For `O=c1[nH]cnc2c1ncn2[C@H]1CC[C@@H](CO)O1` [ddI, 2′,3′-dideoxyinosine], the CC50 at 48 h (in series [1]; in series [2]; in “in vitro”; in [4]; in series [5]) was greater than 200 µM throughout. Also, the CC50 with THP-1 cells and in the series with U937 cells was greater than 200 µM throughout. Besides, the pEC50 in the series on HIV-1-GFP [3] (Human immunodeficiency virus 1, THP-1, read-out: EC50 [95% CI], THP1 PMA+, Vpx+) was 5.36; with HIV-1-GFP [3] (Human immunodeficiency virus 1, THP-1, read-out: EC50 [95% CI], THP1 PMA+, Vpx−), 7.10; in the series on HIV-1-GFP [3] (Human immunodeficiency virus 1, THP-1, read-out: EC50 [95% CI], THP1 PMA−, Vpx+) it was 5.56; with HIV-1-GFP [3] (Human immunodeficiency virus 1, THP-1, read-out: EC50 [95% CI], THP1 PMA−, Vpx−), 5.98; in the series with HIV-1-GFP [6] (Human immunodeficiency virus 1, THP-1, read-out: EC50 [95% CI], THP1 PMA+) it was 7.03; with HIV-1-GFP [6] (Human immunodeficiency virus 1, THP-1, read-out: EC50 [95% CI], THP1 PMA−) it was 5.69. The pEC50 was 5.61 in the series on HIV-1-GFP [6] (Human immunodeficiency virus 1, U-937, read-out: EC50 [95% CI], U937 PMA+); 4.34 in the series on HIV-1-GFP [6] (Human immunodeficiency virus 1, U-937, read-out: EC50 [95% CI], U937 PMA−); 5.06 in the series with HIV-1-GFP [7] (Human immunodeficiency virus 1, U-937, read-out: EC50 [95% CI], U937 PMA+, HD206/7AA+ population); 6.96 in the series on HIV-1-GFP [7] (Human immunodeficiency virus 1, U-937, read-out: EC50 [95% CI], U937 PMA+, SAMHD1+ population); 4.26 in the series on HIV-1-GFP [7] (Human immunodeficiency virus 1, U-937, read-out: EC50 [95% CI], U937 PMA−, HD206/7AA+ population); 4.63 with HIV-1-GFP [7] (Human immunodeficiency virus 1, U-937, read-out: EC50 [95% CI], U937 PMA−, SAMHD1+ population).
